The test system of this assay is mosquitoes. The assay can be described thus: in vivo direct skin application bioassay. The conditions noted are these: 12.5% application rate. The method, then: Direct skin application bioassays were conducted by using a powder-free latex glove (Diamond Grip, Microflex Corporation, Reno, Nev.). An opening of 3×4 cm was cut through the glove to fit on dorsal surface of the hand (FIG. 1). After wearing the glove, a wristband was used to avoid the biting on the hand near the border of the glove. Approximately, 500 (±5%), consisting primarily of females were transferred to a test cage (45×45×45 cm) using an aspirator. A series of dosages were tested to determine MED for repellency as well as residual activity against mosquitoes. A single test consisted of covering the hand of a volunteer with a powder-free latex glove and treating 12 cm^2 surface area, cut through the glove, on dorsal surface of the hand. Marked skin surface area was treated with the test compound in 50 μl of total volume. Because of constrain of man power, only one volunteer who was provided with a written informed consent participated in this study. A protocol approved by the University of Mississippi Human Use Institutional Review Board (IRB protocol #15-070) was followed.
The test started when the hand treated (3×4 cm area cut through the glove on the dorsal surface) with a test compound was inserted into the mosquito cage. […] Any treatment with […] females biting during 1 min test period was considered as “passed” whereas a treatment with ≥5 bites out of 500 mosquitoes was considered as “failed”. In case of passing the next lower and in case of failure next higher serial dose was tested to reach MED. Additionally, data on the residual repellent activity was recorded by exposing the treatments to the females after every 30 minutes until the treatment failed. Carrot essential oil, carotol and DEET and the mixtures were tested.
Direct skin application bioassays were conducted by using a powder-free latex glove (Diamond Grip™, Microflex Corporation, Reno, Nev.). An opening of 3×4 cm was cut through the glove to fit on the dorsal surface of the hand. After donning the glove, a wristband was used to avoid biting on the hand near the border of the glove. Approximately 500 (±5%) mosquitoes, consisting primarily of females, were transferred to a test cage (45×45×45 cm) using an aspirator. A series of dosages were tested to determine MED for repellency as well as residual activity against mosquitoes.
A single test consisted of covering the hand of a volunteer with a powder-free latex glove and treating a 12 cm^2 surface area, cut through the glove, on the dorsal surface of the hand. Marked skin surface area was treated with the test compound in 50 μl of total volume. Because of constraints of man power, only one volunteer who was provided with a written informed consent participated in this study. A protocol approved by the University of Mississippi Human Use Institutional Review Board (IRB Protocol #15-070) was followed.
The test started when the hand treated (3×4 cm area cut through the glove on the dorsal surface) with a test compound was inserted into the mosquito cage. […] Any treatment with ≤5 females biting during the 1 min test period was considered as “passed”, whereas a treatment with ≥5 bites out of 500 mosquitoes was considered as “failed”. In case of passing, the next lower, and in case of failure, the next higher, serial dose was tested to reach MED. Additionally, data on the residual repellent activity were recorded by exposing the treatments to the females after every 30 minutes until the treatment failed. Carrot seed essential oil, carotol, geranium and lemon Eucalyptus essential oils, DEET, picaridin and the mixtures were tested.

Regarding `CCCCCCCCCCC(=O)O` [Undecanoic acid, undecanoic acid, reference compound], the “residual activity: time post application at which MED reached/crossed” value amounted to 1.5 h.

The values above are taken from US11064704B2, “Natural product formulations with improved residual insect repellent/deterrent activity” (University of Mississippi, priority 2016, dated 2021).
